# Measured values published in US20060069132A1, “Azolecarboxamide herbicides” (priority 2004, published 2006).
# Assays:
# wild oat = assay: Test B postemergence herbicide test; type: in vivo, Avena fatua; conditions: postemergence, visual rating, scale 0 (no effect) to 100 (complete control)
# How it was run: (§1)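 Treated at 2-leaf (paddy) or 1–4-leaf, 2–18 cm (postemergence); greenhouse 13–15 d; visual score vs control, 0 none to 100 complete control; dash = not tested.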
# large crabgrass = assay: Test B pre-/postemergence herbicide test; type: in vivo, Digitaria sanguinalis; conditions: for Crabgrass, Large plant response rating: postemergence, scale 0 (no effect) to 100 (complete control)
# How it was run: (§2)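 Visual rating, 0 (no effect) to 100 (complete control), versus untreated controls after 13–15 d in greenhouse. Pre- and postemergence applications (postemergence plants 2–18 cm, 1–4 leaves); flooded paddy arm at 2-leaf stage. Compounds in non-phytotoxic solvent plus surfactant.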
# morningglory = assay: Test B pre-/postemergence herbicide test; type: in vivo, Ipomoea coccinea; conditions: for Morningglory plant response rating: postemergence, scale 0 (no effect) to 100 (complete control)
# How it was run: (§3)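 Herbicidal effect was judged by eye on a 0–100 scale after plants stood 13 to 15 days in the greenhouse following pre- or postemergence treatment with surfactant-containing formulations.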
# rice [1] = assay: Test B flooded paddy test; type: in vivo, Oryza sativa; conditions: 1000 g ai/ha, visual rating, scale 0 to 100 (0 no effect, 100 complete control), 13 to 15 days
# How it was run: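 Read-out: visual comparison with controls, scored 0 to 100, where 100 means complete control and 0 no effect. Formulated chemicals were applied postemergence to plants 2–18 cm tall (1- to 4-leaf), or to flooded-paddy plants at the 2-leaf stage, then held 13 to 15 days under glass.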
# [2] = system: smallflower umbrella sedge; assay: Test C flooded paddy test; type: in vivo, Cyperus difformis
# barnyardgrass [3] = assay: Test B flooded paddy test; type: in vivo, Echinochloa crus-galli; conditions: 1000 g ai/ha, visual rating, scale 0 to 100 (0 no effect, 100 complete control), 13 to 15 days
# How it was run: as §1
# wheat = assay: Test B postemergence herbicide test; type: in vivo, Triticum aestivum; parameters: key to Wheat plant response rating: 0 = no effect, 100 = complete control; conditions: postemergence, visual rating, scale 0 (no effect) to 100 (complete control)
# How it was run: as §1
# pigweed = assay: Test B pre-/postemergence herbicide test; type: in vivo, Amaranthus retroflexus; conditions: for Pigweed plant response rating: postemergence, scale 0 (no effect) to 100 (complete control)
# How it was run: as §2
# ducksalad [4] = assay: Test C flooded paddy test; type: in vivo, Heteranthera limosa
# corn = assay: Test B pre-/postemergence herbicide test; type: in vivo, Zea mays; conditions: for Corn plant response rating: postemergence, scale 0 (no effect) to 100 (complete control)
# How it was run: as §2
# barnyardgrass [5] = assay: Test B pre-/postemergence herbicide test; type: in vivo, Echinochloa crus-galli; conditions: for Barnyardgrass plant response rating: postemergence, scale 0 (no effect) to 100 (complete control)
# How it was run: as §3
# barnyardgrass [6] = assay: Test C flooded paddy test; type: in vivo, Echinochloa crus-galli
# How it was run: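 After a postemergence application at 1 to 4 leaves (plants 2–18 cm high), or at 2 leaves for barnyardgrass in flooded paddy, plants stayed in the greenhouse for 12 to 14 days. Damage was then judged visually relative to control plants, with 100 indicating complete control.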
# [7] = system: small flower umbrella sedge; assay: Test B flooded paddy test; type: in vivo, Cyperus difformis; conditions: 1000 g ai/ha, visual rating, scale 0 to 100 (0 no effect, 100 complete control), 13 to 15 days
# How it was run: as §1
# blackgrass = assay: Test B postemergence herbicide test; type: in vivo, Alopecurus myosuroides; conditions: postemergence, visual rating, scale 0 (no effect) to 100 (complete control)
# How it was run: as §1
# ducksalad [8] = assay: Test B flooded paddy test; type: in vivo, Heteranthera limosa; conditions: 1000 g ai/ha, visual rating, scale 0 to 100 (0 no effect, 100 complete control), 13 to 15 days
# How it was run: as §1
# rice [9] = assay: Test B pre-/postemergence herbicide test; type: in vivo, Oryza sativa; conditions: 0 = no effect, 100 = complete control, preemergence
# How it was run: as §2
# rice [10] = assay: Test C flooded paddy test; type: in vivo, Oryza sativa
# How it was run: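 Plants were grown to the 1- to 4-leaf stage (2–18 cm) and then treated postemergence, or grown to the 2-leaf stage for the flooded paddy test. They were held in a greenhouse for 12 to 14 days and then scored by eye against controls, where 0 is no effect and 100 is complete control.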
# lambsquarters = assay: Test B pre-/postemergence herbicide test; type: in vivo, Chenopodium album; conditions: visual rating; for Lambsquarters plant response rating: postemergence, scale 0 (no effect) to 100 (complete control)
# How it was run: as §2
# cocklebur = assay: Test B pre-/postemergence herbicide test; type: in vivo, Xanthium strumarium; conditions: for Cocklebur plant response rating: postemergence, scale 0 (no effect) to 100 (complete control)
# How it was run: as §3
# velvetleaf = assay: Test B pre-/postemergence herbicide test; type: in vivo, Abutilon theophrasti; conditions: for Velvetleaf plant response rating: postemergence, scale 0 (no effect) to 100 (complete control)
# How it was run: as §2
# giant foxtail = assay: Test B pre-/postemergence herbicide test; type: in vivo, Setaria faberi; conditions: for Foxtail, Giant plant response rating: postemergence, scale 0 (no effect) to 100 (complete control)
# How it was run: as §2
# Surinam grass = assay: Test B pre-/postemergence herbicide test; type: in vivo, Urochloa decumbens; conditions: for Surinam Grass plant response rating: postemergence, scale 0 (no effect) to 100 (complete control)
# How it was run: as §2
# [11] = 125 g ai/ha, 0 = no effect, 100 = complete control, preemergence
# [12] = 500 g ai/ha, visual rating, 0 = no effect, 100 = complete control, preemergence
# [13] = 62 g ai/ha, scale 0 to 100 (0 no effect, 100 complete control)
# [14] = 125 g ai/ha, scale 0 to 100 (0 no effect, 100 complete control)
# [15] = 250 g ai/ha, scale of 0 to 100, 0 is no effect, 100 is complete control
# [16] = 500 g ai/ha, visual rating after 12 to 14 days, scale 0 to 100 (0 no effect, 100 complete control)
compound,measurement,setting,value
CCNC(=O)c1ccc(F)c(NC(=O)c2sc(C(C)(C)C)nc2CC)c1 [Compound 226],"Oat, Wild plant response rating",wild oat; 125 g ai/ha,30
same,"Oat, Wild plant response rating",wild oat; 500 g ai/ha,30
same,"Crabgrass, Large plant response rating (0 to 100 scale)",large crabgrass; [11],20
same,"Plant response rating, Crabgrass, Large",large crabgrass; [12],100
same,"Crabgrass, Large plant response rating","large crabgrass; 125 g ai/ha, visual rating",20
same,"Crabgrass, Large plant response rating","large crabgrass; 500 g ai/ha, visual rating",20
same,Morningglory plant response rating (0 to 100 scale),morningglory; [11],0
same,"Plant response rating, Morningglory",morningglory; [12],10
same,Morningglory plant response rating,"morningglory; 125 g ai/ha, visual rating",30
same,Morningglory plant response rating,"morningglory; 500 g ai/ha, visual rating",80
same,Rice plant response rating,rice [1],80
same,"Sedge, Umbrella plant response rating",[2]; [13],10
same,"Sedge, Umbrella plant response rating",[2]; [14],10
same,"Sedge, Umbrella plant response rating",[2]; [15],40
same,"Plant response rating, Sedge, Umbrella",[2]; [16],70
same,Barnyardgrass plant response rating,barnyardgrass [3],80
same,Wheat plant response rating,wheat; 125 g ai/ha,20
same,Wheat plant response rating,wheat; 500 g ai/ha,30
same,Pigweed plant response rating (0 to 100 scale),pigweed; [11],40
same,"Plant response rating, Pigweed",pigweed; [12],70
same,Pigweed plant response rating,"pigweed; 125 g ai/ha, visual rating",30
same,Pigweed plant response rating,"pigweed; 500 g ai/ha, visual rating",60
same,Ducksalad plant response rating,ducksalad [4]; [13],0
same,Ducksalad plant response rating,ducksalad [4]; [14],0
same,Ducksalad plant response rating,ducksalad [4]; [15],40
same,"Plant response rating, Ducksalad",ducksalad [4]; [16],65
same,Corn plant response rating (0 to 100 scale),corn; [11],0
same,"Plant response rating, Corn",corn; [12],20
same,Corn plant response rating,"corn; 125 g ai/ha, visual rating",10
same,Corn plant response rating,"corn; 500 g ai/ha, visual rating",40
same,Barnyardgrass plant response rating (0 to 100 scale),barnyardgrass [5]; [11],10
same,"Plant response rating, Barnyardgrass",barnyardgrass [5]; [12],60
same,Barnyardgrass plant response rating,"barnyardgrass [5]; 125 g ai/ha, visual rating",10
same,Barnyardgrass plant response rating,"barnyardgrass [5]; 500 g ai/ha, visual rating",20
same,Barnyardgrass plant response rating,barnyardgrass [6]; [13],0
same,Barnyardgrass plant response rating,barnyardgrass [6]; [14],0
same,Barnyardgrass plant response rating,barnyardgrass [6]; [15],50
same,"Plant response rating, Barnyardgrass",barnyardgrass [6]; [16],60
same,"Sedge, Umbrella plant response rating",[7],80
same,Blackgrass plant response rating,blackgrass; 125 g ai/ha,20
same,Blackgrass plant response rating,blackgrass; 500 g ai/ha,20
same,Ducksalad plant response rating,ducksalad [8],70
same,Rice plant response rating (0 to 100 scale),rice [9]; 125 g ai/ha,20
same,"Plant response rating, Rice","rice [9]; 500 g ai/ha, visual rating",30
same,Rice plant response rating,rice [10]; [13],0
same,Rice plant response rating,rice [10]; [14],25
same,Rice plant response rating,rice [10]; [15],45
same,"Plant response rating, Rice",rice [10]; [16],70
same,"Plant response rating, Lambsquarters","lambsquarters; 500 g ai/ha, 0 = no effect, 100 = complete control, preemergence",90
same,Lambsquarters plant response rating,lambsquarters; 125 g ai/ha,40
same,Lambsquarters plant response rating,lambsquarters; 500 g ai/ha,60
same,Cocklebur plant response rating (0 to 100 scale),cocklebur; [11],0
same,"Plant response rating, Cocklebur",cocklebur; [12],0
same,Cocklebur plant response rating,"cocklebur; 125 g ai/ha, visual rating",10
same,Cocklebur plant response rating,"cocklebur; 500 g ai/ha, visual rating",20
same,Velvetleaf plant response rating (0 to 100 scale),velvetleaf; [11],10
same,"Plant response rating, Velvetleaf",velvetleaf; [12],50
same,Velvetleaf plant response rating,"velvetleaf; 125 g ai/ha, visual rating",20
same,Velvetleaf plant response rating,"velvetleaf; 500 g ai/ha, visual rating",20
same,"Foxtail, Giant plant response rating (0 to 100 scale)",giant foxtail; [11],20
same,"Plant response rating, Foxtail, Giant",giant foxtail; [12],70
same,"Foxtail, Giant plant response rating","giant foxtail; 125 g ai/ha, visual rating",20
same,"Foxtail, Giant plant response rating","giant foxtail; 500 g ai/ha, visual rating",20
same,Surinam Grass plant response rating (0 to 100 scale),Surinam grass; [11],10
same,"Plant response rating, Surinam Grass",Surinam grass; [12],40
same,Surinam Grass plant response rating,"Surinam grass; 125 g ai/ha, visual rating",10
same,Surinam Grass plant response rating,"Surinam grass; 500 g ai/ha, visual rating",20
